The text below walks through data of patent US11020482B2, “Methods and compositions related to inhibition of viral entry” (UNIVERSITY OF UTAH RESEARCH FOUNDATION, priority 2011, dated 2021).

The subject of assay [1] is HIV JRFL strain pseudovirions. The assay is described as follows: Pseudovirion viral infectivity (entry) assay, JRFL. In kind it is cell-based, HIV-1. The procedure: (§1) This study included the use of the HIV HXB2 strain and the HIV JRFL strain. Viral infectivity was measured essentially as previously described (Hamburger 2005) with several modifications. 8 μg/mL DEAE-Dextran was used as a fusion enhancer in all assays. Media was changed 22-26 h following infection. […] Fits were weighted by the absolute s.e.m. from quadruplicate points with the minimum allowable error set to 1%.
(§2) Pseudovirion infectivity assays were carried out using HIV HXB2 strain and HIV JRFL strain luciferase reporter pseudovirions (NL4-3 strain) and HOS-CD4-CXCR4 (for HXB2) or HOS-CD4-CCR5 (for JRFL) target cells (Welch, 2007 and 2010). Inhibitors curves were generated using six concentration points measured in quadruplicate, and luciferase counts were normalized to an uninhibited control. Inhibition curves were fit using a standard IC50 equation (1-c/(IC50+c)) weighting each concentration point by its standard error in KaleidaGraph™ (Synergy Software). Reported IC50 values are the average of at least 2 independent assays.

The subject of assay [2] is HIV HXB2 strain pseudovirions. As to the kind of experiment: Pseudovirion viral infectivity (entry) assay, HXB2. The assay is classed as cell-based, HIV-1. The procedure:
as §1, §2

The subject of assay [3] is HIV JRFL strain pseudovirions. The note with it: Table 5; value marked * (from 20); cited from earlier work.
In the next assay the test system is Q577R HXB2. As to the kind of experiment: Pseudovirion entry assay, resistant strain Q577R. The note with it: Table 4; resistance mutation discovered against PIE12-trimer. In kind it is cell-based, HIV-1. As for the experimental part: as §2
Another assay concerns E560K/V570I HXB2. As to the kind of experiment: Pseudovirion entry assay, resistant strain E560K/V570I. In kind it is cell-based, HIV-1. The note with it: Table 4; resistance mutation discovered against PIE7-dimer. The procedure: as §2
Assay [4] relates to HIV HXB2 strain pseudovirions. The note with it: Table 5; value marked * (from 20); cited from earlier work.
A further assay relates to HIV. As to the kind of experiment: Infectivity assay. The assay is classed as cell-based.
For another assay, the system named is HIV-1 isolate 93TH073. The assay is described as follows: Replication competent virus, PBMC target cells. The assay is classed as cell-based. As to conditions: isolate 93TH073, envelope subtype E.
The subject of a further assay is HIV-1 isolate CMU02. The assay is described as follows: Replication competent virus, PBMC target cells. The assay is classed as cell-based. The note with it: isolate CMU02, envelope subtype AE.
Another assay concerns HIV-1 isolate 92UG046. As to the kind of experiment: Replication competent virus, PBMC target cells. In kind it is cell-based. The note with it: isolate 92UG046, envelope subtype D.
Another assay relates to HIV-1 isolate 92BR025. As to the kind of experiment: Replication competent virus, PBMC target cells. In kind it is cell-based. The note with it: isolate 92BR025, envelope subtype C.
A further assay relates to HIV-1 isolate 93BR020. As to the kind of experiment: Replication competent virus, PBMC target cells. The assay is classed as cell-based. The note with it: isolate 93BR020, envelope subtype F.
Another assay concerns HIV-1 isolate 92UG029. As to the kind of experiment: Replication competent virus, PBMC target cells. The assay is classed as cell-based. The note with it: isolate 92UG029, envelope subtype A.
A further assay relates to HIV-1 isolate CMU06. As to the kind of experiment: Replication competent virus, PBMC target cells. The assay is classed as cell-based. As to conditions: isolate CMU06, envelope subtype E.
The subject of another assay is HIV-1 isolate G3. As to the kind of experiment: Replication competent virus, PBMC target cells. In kind it is cell-based. The note with it: isolate G3, envelope subtype G.
A further assay relates to HIV-1 isolate Ba-L. The assay is described as follows: Replication competent virus, PBMC target cells. In kind it is cell-based. As to conditions: envelope subtype B.
A further assay concerns HIV-1 isolate 92UG001. As to the kind of experiment: Replication competent virus, PBMC target cells. The assay is classed as cell-based. The note with it: isolate 92UG001, envelope subtype D.
Another assay concerns HIV-1 isolate 93BR029. As to the kind of experiment: Replication competent virus, PBMC target cells. The assay is classed as cell-based. As to conditions: isolate 93BR029, envelope subtype F.
Another assay concerns HIV-1 isolate IIIB. The assay is described as follows: Replication competent virus, PBMC target cells. In kind it is cell-based. The note with it: envelope subtype B.
A further assay concerns HIV-1 isolate 93BR019. The assay is described as follows: Replication competent virus, PBMC target cells. As to conditions: isolate 93BR019, envelope subtype BF. The assay is classed as cell-based.
For another assay, the system named is HIV-1 isolate JR-FL. The assay is described as follows: Replication competent virus, PBMC target cells. In kind it is cell-based. As to conditions: envelope subtype B.
A further assay deals with HIV-1 isolate JR-CSF. As to the kind of experiment: Replication competent virus, PBMC target cells. The assay is classed as cell-based. The note with it: envelope subtype B.
A further assay deals with HIV-1 isolate RU570. As to the kind of experiment: Replication competent virus, PBMC target cells. The assay is classed as cell-based. The note with it: isolate RU570, envelope subtype G.
Assay [5] deals with replication competent HIV strains that cover envelope subtypes A, B, C, D, E, F, and G. The assay is described as follows: Inhibitory breadth against replication competent virus panel. The assay is classed as cell-based, HIV-1.
The next assay relates to HIV-1 isolate 93IN101. The assay is described as follows: Replication competent virus, PBMC target cells. In kind it is cell-based. The note with it: isolate 93IN101, envelope subtype C.
A further assay has as its system HIV-1 isolate 92UG037. The assay is described as follows: Replication competent virus, PBMC target cells. The assay is classed as cell-based. The note with it: isolate 92UG037, envelope subtype A.
Where [6] appears, read: Table 4, cholesterol potency-enhancing cargo.

Where two headings read alike, the source gives them in different places.

As a reminder, the IC50 is the point on the concentration scale where inhibition reaches its midpoint. With GACDYPEWQWLCAAGK [PIE7-GK], the IC50 in assay [1] (Table 2, pseudovirion entry) came out at 15800 nM; in [2] (Table 2, pseudovirion entry) it was 390 nM.

As to GACDYPEWQWLCAAGKK [PIE7-GKK], the IC50 in [1] (Table 2, pseudovirion entry) was determined as 19100 nM; in [2] (Table 2, pseudovirion entry), 380 nM.

As for HACDYPEWQWLCELGK [PIE15], the IC50 in assay [1] (Table 2, pseudovirion entry) worked out at 1450 nM; in assay [2] (Table 2, pseudovirion entry), 67 nM.

Turning to HPCDYPEWQWLCELGK [PIE12], the IC50 was 580 ± 21.4 nM in assay [3]; 578 nM in assay [1] (Table 2, pseudovirion entry); 580 nM in assay [1] (setting [6]); 37 nM in [2] (Table 2, pseudovirion entry); 37 nM in assay [2] (setting [6]); 10200 nM with Q577R HXB2. Besides, the IC50 in the assay on E560K/V570I HXB2 is 240 nM; in [4], 37 ± 2.3 nM.

For HPCDYPEWQWLCKLGK [PIE13], the IC50 in [1] (Table 2, pseudovirion entry) stood at 1470 nM; in assay [2] (Table 2, pseudovirion entry) it was 41 nM.

In the case of HPCDYPEWQWLCRLGK [PIE14], the IC50 is 1050 nM in [1] (Table 2, pseudovirion entry) and 33 nM in assay [2] (Table 2, pseudovirion entry).

Regarding KGACDYKEWQWLCAA [PIE8], in assay [1] (Table 2, pseudovirion entry), the IC50 was roughly 110000 nM.

Take KGACDYPEWQWLCAA [PIE7]: the IC50 in assay [1] (Table 2, pseudovirion entry) worked out at 24000 nM; in [2] (Table 2, pseudovirion entry), 620 nM.

On to KGACDYPEWQWLCAAGK [K-PIE7-GK], for which the IC50 in assay [1] (Table 2, pseudovirion entry) worked out at 14800 nM.

As to KGACDYPEWRWLCAA [PIE2], the IC50 in assay [1] (Table 2, pseudovirion entry) turned out to be 66000 nM.

Regarding KKGACELLGWEWAWLCAA [D10-p5], the IC50 in [1] (Table 2, pseudovirion entry) was greater than 25000 nM. The “inhibit infection of cells” value in the assay with HIV is “inhibit infection of cells”.

As to KKGACESPEWRWLCAA [2K-PIE1], the IC50 in [1] (Table 2, pseudovirion entry) is greater than 100000 nM.

As for enfuvirtide [FUZEON ®], the IC50 is 198 nM in the assay on HIV-1 isolate 93TH073; 43.8 nM in the assay on HIV-1 isolate CMU02; 130 nM in the assay with HIV-1 isolate 92UG046; 305 nM in the assay with HIV-1 isolate 92BR025; 5 nM in assay [1] (Table 2, pseudovirion entry); 58.5 nM in the assay on HIV-1 isolate 93BR020. Moreover, the IC50 in the assay with HIV-1 isolate 92UG029 was 191 nM; with HIV-1 isolate CMU06, 5.65 nM; in the assay with HIV-1 isolate G3, 23.3 nM; in the assay with HIV-1 isolate Ba-L, 19.7 nM; in the assay on HIV-1 isolate 92UG001, 182 nM; in the assay with HIV-1 isolate 93BR029 it was 18.6 nM. Besides, the IC50 in the assay with HIV-1 isolate IIIB was 28.3 nM; in the assay on HIV-1 isolate 93BR019, greater than 1000 nM; in the assay on HIV-1 isolate JR-FL, 1.65 nM; in assay [2] (Table 2, pseudovirion entry), 3.7 nM; in the assay with HIV-1 isolate JR-CSF, 7.03 nM; in the assay on HIV-1 isolate RU570 it was 37 nM. Also, the IC50 was determined as 22.4 nM in the assay with HIV-1 isolate 93IN101 and 41.5 nM in the assay with HIV-1 isolate 92UG037. In addition, the “fold less inhibition than PIE12-trimer” value in assay [5] (HIV subtype A viruses) was greater than 100 fold; in assay [5] (subtype C viruses), roughly 60 fold.
